Each structure is given as a SMILES string.

T1 sequence (Q9BUB5 1-424 isoform Q9BUB5-2 T344D): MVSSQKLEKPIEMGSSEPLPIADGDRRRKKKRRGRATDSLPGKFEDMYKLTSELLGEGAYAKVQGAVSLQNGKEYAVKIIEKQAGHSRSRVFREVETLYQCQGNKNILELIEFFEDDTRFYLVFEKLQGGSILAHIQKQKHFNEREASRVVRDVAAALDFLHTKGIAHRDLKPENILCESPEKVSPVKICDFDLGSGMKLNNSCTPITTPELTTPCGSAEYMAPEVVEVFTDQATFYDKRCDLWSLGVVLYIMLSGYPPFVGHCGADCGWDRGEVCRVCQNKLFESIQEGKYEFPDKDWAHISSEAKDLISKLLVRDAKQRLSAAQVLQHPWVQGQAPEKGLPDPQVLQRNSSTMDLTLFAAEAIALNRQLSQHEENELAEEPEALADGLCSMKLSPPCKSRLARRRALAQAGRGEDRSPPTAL

The test has as its target T1, human full-length MKNK1 (Homo sapiens, UniProt Q9BUB5, T385D).
T1 construct: purchased Carna Biosciences 02-145; host or cells: insect cells (baculovirus expression system)
The experiment in a line: MKNK1 kinase high ATP assay (TR-FRET). It is filed as biochemical. The note with it: high ATP (2 mM final), 15 min preincubation with enzyme, GST-MKNK1 (T344D). The procedure: MKNK1-inhibitory activity at high ATP of compounds of the present invention after their preincubation with MKNK1 was quantified employing the TR-FRET-based MKNK1 high ATP assay as described in the following paragraphs.
A recombinant fusion protein of Glutathione-S-Transferase (GST, N-terminally) and human full-length MKNK1 (amino acids 1-424 and T344D of accession number BAA 19885.1), expressed in insect cells using baculovirus expression system and purified via glutathione sepharose affinity chromatography, was purchased from Carna Biosciences (product no 02-145) and used as enzyme. As substrate for the kinase reaction the biotinylated peptide biotin-Ahx-IKKRKLTRRKSLKG (C-terminus in amide form) was used, which can be purchased e.g. from the company Biosyntan (Berlin-Buch, Germany).
For the assay 50 nL of a 100 fold concentrated solution of the test compound in DMSO was pipetted into a black low volume 384 well microtiter plate (Greiner Bio-One, Frickenhausen, Germany), 2 μL of a solution of MKNK1 in aqueous assay buffer [50 mM HEPES pH 7.5, 5 mM MgCl2, 1.0 mM dithiothreitol, 0.005% (v/v) Nonidet-P40 (Sigma)] was added and the mixture was incubated for 15 min at 22° C. to allow pre-binding of the test compounds to the enzyme before the start of the kinase reaction. Then the kinase reaction was started by the addition of 3 μL of a solution of adenosine-tri-phosphate (ATP, 3.3 mM=> final conc. in the 5 μL assay volume is 2 mM) and substrate (0.1 μM=> final conc. in the 5 μL assay volume is 0.06 μM) in assay buffer and the resulting mixture was incubated for a reaction time of 30 min at 22° C. The concentration of MKNK1 was adjusted depending of the activity of the enzyme lot and was chosen appropriate to have the assay in the linear range, typical concentrations were in the range of 0.003 μg/mL. The reaction was stopped by the addition of 5 μL of a solution of TR-FRET detection reagents (5 nM streptavidine-XL665 [Cisbio Bioassays, Codolet, France] and 1 nM anti-ribosomal protein S6 (pSer236)-antibody from Invitrogen [#44921G] and 1 nM LANCE EU-W1024 labeled ProteinG [Perkin-Elmer, product no. AD0071]) in an aqueous EDTA-solution (100 mM EDTA, 0.1% (w/v) bovine serum albumin in 50 mM HEPES pH 7.5).
The resulting mixture was incubated for 1 h at 22° C. to allow the formation of complex between the phosphorylated biotinylated peptide and the detection reagents. Subsequently the amount of phosphorylated substrate was evaluated by measurement of the resonance energy transfer from the Eu-chelate to the streptavidine-XL. Therefore, the fluorescence emissions at 620 nm and 665 nm after excitation at 350 nm were measured in a TR-FRET reader, e.g. a Rubystar (BMG Labtechnologies, Offenburg, Germany) or a Viewlux (Perkin-Elmer). The ratio of the emissions at 665 nm and at […] was taken as the measure for the amount of phosphorylated substrate. The data were normalised (enzyme reaction without inhibitor=0% inhibition, all other assay components but no enzyme=100% inhibition).
(In general: Time-resolved FRET reads energy transfer from a long-lived donor to a nearby acceptor.)
The term IC50 denotes the concentration needed to halve the response being measured. Take `CN(C)[C@@H]1CCN(C(=O)[C@H]2CCc3c(sc4ncnc(Nc5cnc6[nH]ncc6c5)c34)C2)C1` [Example 101, [(3R)-3-(Dimethylamino)pyrrolidin-1-yl][(7S)-4-(1H-pyrazolo[3,4-b]pyridin-5-ylamino)-5,6,7,8-tetrahydro[1]benzothieno[2,3-d]pyrimidin-7-yl]methanone]: it took 4.6 nM to reach half-maximal inhibition (IC50).

Turning to `COc1nc2[nH]ncc2cc1Nc1ncnc2sc3c(c12)CC[C@H](C(=O)N1CCC(N(C)C)CC1)C3` [Example 43, [4-(Dimethylamino)piperidin-1-yl]{(7S)-4-[(6-methoxy-1H-pyrazolo[3,4-b]pyridin-5-yl)amino]-5,6,7,8-tetrahydro[1]benzothieno[2,3-d]pyrimidin-7-yl}methanone], the IC50 was 1.6 nM. The same measure for `O=C(c1cc2c(Nc3cc4cn[nH]c4cn3)ncnc2[nH]1)N1CCCCC1` [Example 20, Piperidin-1-yl[4-(1H-pyrazolo[3,4-c]pyridin-5-ylamino)-7H-pyrrolo[2,3-d]pyrimidin-6-yl]methanone]: 7.8 nM; for `CN1CCN(C(=O)C2CCc3c(sc4ncnc(Nc5cc6cn[nH]c6cn5)c34)C2)CC1` (racemic) [Example 26, (RS)-(4-Methylpiperazin-1-yl)[4-(1H-pyrazolo[3,4-c]pyridin-5-ylamino)-5,6,7,8-tetrahydro[1]benzothieno[2,3-d]pyrimidin-7-yl]methanone]: 38.2 nM; for `FC(F)(F)c1c[nH]c2ncnc(Nc3cnc4[nH]ncc4c3)c12` [Example 15, N-[5-(Trifluoromethyl)-7H-pyrrolo[2,3-d]pyrimidin-4-yl]-1H-pyrazolo[3,4-b]pyridin-5-amine]: 28.8 nM.

For `N#CC1CN(C(=O)[C@H]2CCc3c(sc4ncnc(Nc5cc6cn[nH]c6cn5)c34)C2)C1` [Example 82, 1-{[(7S)-4-(1H-Pyrazolo[3,4-c]pyridin-5-ylamino)-5,6,7,8-tetrahydro[1]benzothieno[2,3-d]pyrimidin-7-yl]carbonyl}azetidine-3-carbonitrile], the IC50 was 3.2 nM.

Regarding `FC(F)(F)c1c[nH]c2ncnc(Nc3cc4cn[nH]c4cn3)c12` [Example 16, N-[5-(Trifluoromethyl)-7H-pyrrolo[2,3-d]pyrimidin-4-yl]-1H-pyrazolo[3,4-c]pyridin-5-amine], the IC50 was 52.9 nM. For the compound `COc1nc2[nH]ncc2cc1Nc1ncnc2[nH]c(C(=O)N3CCOC[C@H]3C)c(Br)c12` [Example 66], half-maximal inhibition (IC50) was put at 8.3 nM.

Compound `CCCN(C)C(=O)[C@H]1CCc2c(sc3ncnc(Nc4cc5cn[nH]c5cn4)c23)C1` [Example 81, (7S)—N-Methyl-N-propyl-4-(1H-pyrazolo[3,4-c]pyridin-5-ylamino)-5,6,7,8-tetrahydro[1]benzothieno[2,3-d]pyrimidine-7-carboxamide] registered an IC50 of 16.1 nM. The result for `COc1nc2[nH]ncc2cc1Nc1ncnc2sc3c(c12)CC[C@H](C(=O)N1CCOC[C@@H]1C)C3` [Example 45] reads 0.7 nM; that for `CCCN(C)C(=O)[C@H]1CCc2c(sc3ncnc(Nc4cc5cn[nH]c5nc4O)c23)C1` [Example 113, (7S)-4-[(6-Hydroxy-1H-pyrazolo[3,4-b]pyridin-5-yl)amino]-N-methyl-N-propyl-5,6,7,8-tetrahydro[1]benzothieno[2,3-d]pyrimidine-7-carboxamide], 3.3 nM. `CN(C)C1CCN(C(=O)[C@H]2CCc3c(sc4ncnc(Nc5cnc6[nH]ncc6c5)c34)C2)CC1` [Example 107, [4-(Dimethylamino)piperidin-1-yl][(7S)-4-(1H-pyrazolo[3,4-b]pyridin-5-ylamino)-5,6,7,8-tetrahydro[1]benzothieno[2,3-d]pyrimidin-7-yl]methanone]: the IC50 came to 13.3 nM.

In turn, `CC(C)NC(=O)C1CCc2c(sc3ncnc(Nc4cnc5[nH]ncc5c4)c23)C1` (racemic) [Example 23, (RS)—N-(Propan-2-yl)-4-(1H-pyrazolo[3,4-b]pyridin-5-ylamino)-5,6,7,8-tetrahydro[1]benzothieno[2,3-d]pyrimidine-7-carboxamide] returned an IC50 of 10.4 nM. The IC50 values of the last two compounds are within 1.5-fold of each other. Turning to `C[C@@H]1COCCN1C(=O)[C@H]1CCc2c(sc3ncnc(Nc4cc5cn[nH]c5cn4)c23)C1` [Example 88, [(3R)-3-Methylmorpholin-4-yl][(7S)-4-(1H-pyrazolo[3,4-c]pyridin-5-ylamino)-5,6,7,8-tetrahydro[1]benzothieno[2,3-d]pyrimidin-7-yl]methanone], the IC50 is 8 nM. The compound `CN(C)CCCN(C)C(=O)c1[nH]c2ncnc(Nc3cc4cn[nH]c4nc3O)c2c1Br` [Example 132, 5-Bromo-N-[3-(dimethylamino)propyl]-4-[(6-hydroxy-1H-pyrazolo[3,4-b]pyridin-5-yl)amino]-N-methyl-7H-pyrrolo[2,3-d]pyrimidine-6-carboxamide] gave an IC50 of 23.4 nM.

As for `CCOC(=O)c1cc2c(Nc3cnc4[nH]ncc4c3)ncnc2[nH]1` [Example 9, Ethyl 4-(1H-pyrazolo[3,4-b]pyridin-5-ylamino)-7H-pyrrolo[2,3-d]pyrimidine-6-carboxylate], the IC50 came to 3 nM. `CN1CCN(C(=O)[C@H]2CCc3c(sc4ncnc(Nc5cnc6[nH]ncc6c5)c34)C2)CC1` [Example 106, (4-Methylpiperazin-1-yl)[(7S)-4-(1H-pyrazolo[3,4-b]pyridin-5-ylamino)-5,6,7,8-tetrahydro[1]benzothieno[2,3-d]pyrimidin-7-yl]methanone] displayed an IC50 of 20.4 nM.

The compound `O=C([C@H]1CCc2c(sc3ncnc(Nc4cnc5[nH]ncc5c4)c23)C1)N1CCC1` [Example 97, Azetidin-1-yl[(7S)-4-(1H-pyrazolo[3,4-b]pyridin-5-ylamino)-5,6,7,8-tetrahydro[1]benzothieno[2,3-d]pyrimidin-7-yl]methanone] yielded an IC50 of 47.6 nM. `CCCN(C)C(=O)[C@H]1CCc2c(sc3ncnc(Nc4cc5cn[nH]c5nc4OC)c23)C1` [Example 38, (7S)-4-[(6-Methoxy-1H-pyrazolo[3,4-b]pyridin-5-yl)amino]-N-methyl-N-propyl-5,6,7,8-tetrahydro[1]benzothieno[2,3-d]pyrimidine-7-carboxamide] yielded an IC50 of 1.4 nM.

In turn, `c1nc(Nc2cnc3[nH]ncc3c2)c2cc[nH]c2n1` [Example 1, N-(7H-Pyrrolo[2,3-d]pyrimidin-4-yl)-1H-pyrazolo[3,4-b]pyridin-5-amine] yielded an IC50 of 28.1 nM. In turn, `CN1CCN(C(=O)[C@H]2CCc3c(sc4ncnc(Nc5cc6cn[nH]c6cn5)c34)C2)CC1` [Example 90, (4-Methylpiperazin-1-yl)[(7S)-4-(1H-pyrazolo[3,4-c]pyridin-5-ylamino)-5,6,7,8-tetrahydro[1]benzothieno[2,3-d]pyrimidin-7-yl]methanone] had an IC50 of 5.2 nM.

In the case of `CCOC(=O)c1[nH]c2ncnc(Nc3cnc4[nH]ncc4c3)c2c1Br` [Example 12, Ethyl 5-bromo-4-(1H-pyrazolo[3,4-b]pyridin-5-ylamino)-7H-pyrrolo[2,3-d]pyrimidine-6-carboxylate], the IC50 is 5 nM.

The compound `CN(CCN(C)C(=O)c1cc2c(Nc3cc4cn[nH]c4cn3)ncnc2[nH]1)Cc1ccccc1` [Example 78, N-{2-[Benzyl(methyl)amino]ethyl}-N-methyl-4-(1H-pyrazolo[3,4-c]pyridin-5-ylamino)-7H-pyrrolo[2,3-d]pyrimidine-6-carboxamide] had an IC50 of 7.4 nM.

Take `COc1nc2[nH]ncc2cc1Nc1ncnc2sc3c(c12)CC[C@H](C(=O)N1CCN(C)CC1)C3` [Example 42]: the IC50 is 2.1 nM. Turning to `C[C@H]1COCCN1C(=O)[C@H]1CCc2c(sc3ncnc(Nc4cc5cn[nH]c5cn4)c23)C1` [Example 87, [(3S)-3-Methylmorpholin-4-yl][(7S)-4-(1H-pyrazolo[3,4-c]pyridin-5-ylamino)-5,6,7,8-tetrahydro[1]benzothieno[2,3-d]pyrimidin-7-yl]methanone], 10.5 nM corresponded to half-maximal inhibition (IC50).

Regarding `CN(C)C(=O)C1CCc2c(sc3ncnc(Nc4cc5cn[nH]c5cn4)c23)C1` (racemic) [Example 28, (RS)—N,N-Dimethyl-4-(1H-pyrazolo[3,4-c]pyridin-5-ylamino)-5,6,7,8-tetrahydro[1]benzothieno[2,3-d]pyrimidine-7-carboxamide], it took 9.8 nM to reach half-maximal inhibition (IC50). The IC50 values of the last two compounds are within 1.5-fold of each other.

For the origin of these results see US20160159789A1, “SUBSTITUTED PYRAZOLOPYRIDINES” (BAYER PHARMA AKTIENGESELLSCHAFT, priority 2013, published 2016).
